Results on 27 molecules are retold here after US7241791B2, “Substituted 4-(indazol-3-yl)phenols” (Wyeth, priority 2002, dated 2007).

The term EC50 denotes the concentration needed to bring the measured effect to its halfway point. Read a low EC50 as greater potency. The IC50 is the concentration at which inhibition is half-maximal. Read a high IC50 as weaker potency.

The structures appear in SMILES notation. Values joined by “and” are separate entries in the source; they are usually repeats but may differ in a detail not shown here. Identical values can stand only once.

Assay [1] concerns the target T1, human ERα (Homo sapiens, UniProt P03372).
T1 sequence (P03372 1-595): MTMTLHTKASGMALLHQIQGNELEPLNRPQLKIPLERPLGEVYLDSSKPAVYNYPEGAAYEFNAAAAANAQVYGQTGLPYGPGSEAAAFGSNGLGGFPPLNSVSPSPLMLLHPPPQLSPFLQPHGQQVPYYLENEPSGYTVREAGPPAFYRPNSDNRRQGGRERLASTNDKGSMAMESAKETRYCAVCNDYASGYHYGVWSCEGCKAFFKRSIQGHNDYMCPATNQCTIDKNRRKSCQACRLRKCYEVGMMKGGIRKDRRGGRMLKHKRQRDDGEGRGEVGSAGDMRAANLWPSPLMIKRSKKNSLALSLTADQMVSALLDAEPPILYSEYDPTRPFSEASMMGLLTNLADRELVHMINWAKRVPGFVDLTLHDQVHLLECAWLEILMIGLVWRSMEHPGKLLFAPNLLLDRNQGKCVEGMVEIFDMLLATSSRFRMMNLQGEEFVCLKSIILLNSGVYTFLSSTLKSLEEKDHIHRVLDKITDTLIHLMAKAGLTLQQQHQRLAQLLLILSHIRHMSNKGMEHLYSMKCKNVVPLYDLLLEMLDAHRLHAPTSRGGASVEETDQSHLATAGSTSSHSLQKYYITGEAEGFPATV
The assay can be described thus: Creatine kinase expression (ER/CK) in Ad5-wt-hERα infected HAECT-1 cells. The following applies: for ER/CK % E2: efficacy relative to the maximal stimulation observed with E2.

For assay [2], the target named is T1, human ERα. Description: NF-κB luciferase reporter (ER/NF-KB-luc) in Ad5-wt-hERα infected HAECT-1 cells. The following applies: for IC50: ER/NF-KB-luc IC50, Ad5-wt-ER infected HAECT-1 cells, IL-1β; for Emax: HAECT1, read-out: ER/NF-KB-luc % E2, efficacy relative to the maximal inhibition observed with E2. Background: A reporter such as luciferase makes a cellular process visible.

As for `Cc1cc(O)ccc1-c1c2cccc(Cl)c2nn1C(C)C` [Example 81, 4-(7-chloro-2-isopropyl-2H-indazol-3-yl)-3-methylphenol], at human ERα [1], the EC50 was 0.308 µM and the “ER/CK % E2” value was 62 % E2. Further, on human ERα [2], it took 0.033 µM to reach half-maximal inhibition (IC50) and the Emax is 92%.
On the same counts, the results for `CCCn1nc(-c2ccc(O)cc2C)c2cccc(Cl)c21` [Example 86, 4-(7-chloro-1-propyl-1H-indazole-3-yl)-3-methylphenol] are 0.413 µM, 27 % E2, 0.255 µM and 83%.
Taken in the same sequence, the figures for `CC(C)n1nc(-c2ccc(O)cc2O)c2cccc(F)c21` [Example 87, 4-(7-fluoro-1-isopropyl-1H-indazole-3-yl)benzene-1,3-diol] were 0.188 µM, 24 % E2, 0.347 µM and 77%.
As for `Cc1cc(O)ccc1-c1nn(C(C)C)c2c(F)cccc12` [Example 91, 4-(7-fluoro-1-isopropyl-1H-indazole-3-yl)-3-methylphenol], at human ERα [1], the concentration giving a half-maximal response (EC50) was 0.787 µM and the “ER/CK % E2” value was 24 % E2. In addition, on human ERα [2], the IC50 worked out at 0.08 µM and the Emax is 82%.
Taken in the same sequence, the figures for `CCCn1nc2c(-c3ccccc3)cccc2c1-c1ccc(O)cc1` [Example 110, 4-(7-phenyl-2-propyl-2H-indazol-3-yl)phenol] were 0.012 µM, 82 % E2, 0.002 µM and 89%.
In the case of `CCC(=O)Oc1ccc(-c2nn(C3CCCC3)c3c(F)cccc23)cc1` [Example 115, 4-(1-cyclopentyl-7-fluoro-1H-indazol-3-yl)phenyl propionate], at human ERα [1], the EC50 was determined as 0.166 µM and the “ER/CK % E2” value is listed as 91 % E2. Further, at human ERα [2], the IC50 is 0.027 µM and 0.246 µM; the Emax was found to be 82%. For the same molecule, the “ER/NF-KB-luc % E2” value on human ERα [2] (efficacy relative to the maximal inhibition observed with E2) amounted to 71 % E2.
`CC(C)(C)OC(=O)NCC(=O)NCC(=O)Oc1ccc(-c2nn(C3CCCC3)c3c(F)cccc23)cc1` [Example 116, 4-(1-cyclopentyl-7-fluoro-1H-indazol-3-yl)phenyl N-(tert-butoxycarbonyl)glycylglycinate]: at human ERα [1], a half-maximal response (EC50) required 0.229 µM and the “ER/CK % E2” value was found to be 25 % E2. Also, on human ERα [2], 0.14 µM corresponded to half-maximal inhibition (IC50) and the Emax stood at 63%.
On the same counts, the results for `CC(C)(C)OC(=O)N[C@@H](CCC(=O)Oc1ccc(-c2nn(C3CCCC3)c3c(F)cccc23)cc1)C(=O)OC(C)(C)C` [Example 117, 1-tert-butyl 5-[4-(1-cyclopentyl-7-fluoro-1H-indazol-3-yl)phenyl] N-(tert-butoxycarbonyl)-L-glutamate] are 0.169 µM, 22 % E2, 0.15 µM and 52%.
`Oc1ccc(-c2n[nH]c3ccccc23)cc1` [Example 130, 4-(H-indazol-3-yl)phenol]: at human ERα [1], the response was half-maximal at 0.205 µM (EC50) and the “ER/CK % E2” value is recorded as 54 % E2. On human ERα [2], half-maximal inhibition (IC50) required 0.062 µM and the Emax worked out at 97%.
Turning to `Oc1ccc(-c2n[nH]c3cc(Cl)ccc23)cc1` [Example 134, 4-(6-chloro-1H-indazol-3-yl)phenol], on human ERα [1], the response was half-maximal at 1.93 µM (EC50) and the “ER/CK % E2” value came to 36 % E2. In addition, at human ERα [2], the IC50 turned out to be 0.897 µM and the Emax is 76%.
Taken in the same sequence, the figures for `OCCn1nc(-c2ccc(O)cc2)c2ccccc21` [Example 158, 4-[1-(2-hydroxyethyl)-1H-indazol-3-yl]phenol] were 1.12 µM, 59 % E2, 0.515 µM and 106%.
In the case of `Cn1nc(-c2ccc(O)cc2O)c2cccc(C(F)(F)F)c21` [Example 167, 4-[1-methyl-7-(trifluoromethyl)-1H-indazol-3-yl]benzene-1,3-diol], on human ERα [1], the EC50 is 0.588 µM and the “ER/CK % E2” value amounted to 29 % E2. At human ERα [2], the midpoint of inhibition, the IC50, lay at 0.311 µM and the Emax was 83%.
Take `Cn1nc(-c2ccc(O)cc2)c2cc(F)ccc21` [Example 168, 4-(5-fluoro-1-methyl-1H-indazol-3-yl)phenol]: on human ERα [1], the EC50 stood at 1.37 µM and the “ER/CK % E2” value stood at 86 % E2. On human ERα [2], the IC50 amounted to 0.347 µM and the Emax was 95%.
Taken in the same sequence, the figures for `Cn1nc(-c2ccc(O)cc2O)c2cccc(Cl)c21` [Example 170, 4-(7-chloro-1-methyl-1H-indazol-3-yl)benzene-1,3-diol] were 0.827 µM, 28 % E2, 0.276 µM and 77%.
Taken in the same sequence, the figures for `Cn1nc(-c2ccc(O)cc2)c2cc(C(F)(F)F)ccc21` [Example 171, 4-[1-methyl-5-(trifluoromethyl)-1H-indazol-3-yl]phenol] were 2.38 µM, 42 % E2, 0.582 µM and 95%.
On the same counts, the results for `Cn1nc(-c2ccc(O)cc2O)c2cc(F)ccc21` [Example 172, 4-(5-fluoro-1-methyl-1H-indazol-3-yl)benzene-1,3-di] are 1.32 µM, 92 % E2, 0.349 µM and 95%.
As to `Cn1nc(-c2ccc(O)c(O)c2)c2cccc(C(F)(F)F)c21` [Example 176, 4-[1-methyl-7-(trifluoromethyl)-1H-indazol-3-yl]benzene-1,2-diol], on human ERα [1], the 50% effective concentration (EC50) was 1.04 µM and the “ER/CK % E2” value is 70 % E2. For the same molecule, at human ERα [2], the IC50 is 0.587 µM and the Emax was 111%.
Taken in the same sequence, the figures for `Oc1ccc(-c2nn(Cc3ccccc3)c3ccc(C(F)(F)F)cc23)c(O)c1` [Example 182, 4-[1-benzyl-5-(trifluoromethyl)-1H-indazol-3-yl]benzene-1,3-diol] were 2.93 µM, 71 % E2, 0.443 µM and 121%.
Taken in the same sequence, the figures for `Oc1ccc(-c2nn(Cc3ccccc3)c3ccccc23)c(O)c1` [Example 183, 4-(1-benzyl-1H-indazol-3-yl)benzene-1,3-diol] were 2.93 µM, 48 % E2, 0.431 µM and 135%.
On the same counts, the results for `OCCn1nc(-c2ccc(O)cc2)c2cccc(F)c21` [Example 188, 4-[7-fluoro-1-(2-hydroxyethyl)-1H-indazol-3-yl]phenol] are 2.45 µM, 31 % E2, 0.751 µM and 90%.
Consider `OCCn1nc(-c2ccc(O)cc2O)c2cc(F)ccc21` [Example 192, 4-[5-fluoro-1-(2-hydroxyethyl)-1H-indazol-3-yl]benzene-1,3-diol], for which, at human ERα [1], it took 0.608 µM to reach a half-maximal effect (EC50) and the “ER/CK % E2” value came out at 51 % E2. Further, at human ERα [2], inhibition was half-maximal at 0.371 µM (IC50) and the Emax was found to be 87%.
On the same counts, the results for `CCCCn1nc(-c2ccc(O)cc2)c2ccc(C(F)(F)F)cc21` [Example 198, 4-[1-butyl-6-(trifluoromethyl)-1H-indazol-3-yl]phenol] are 1 µM, 30 % E2, 0.303 µM and 100%.
Take `CCCCn1nc(-c2ccc(O)cc2)c2ccc(Cl)cc21` [Example 199, 4-(1-butyl-6-chloro-1H-indazol-3-yl)phenol]: on human ERα [1], it took 1.26 µM to reach a half-maximal effect (EC50) and the “ER/CK % E2” value is 42 % E2. Besides, at human ERα [2], the IC50 is 0.487 µM and the Emax came out at 100%.
Turning to `Cn1nc(-c2ccc(O)cc2)c2cccc(F)c21` [Example 200, 4-(7-fluoro-1-methyl-1H-indazol-3-yl)phenol], at human ERα [1], the midpoint of the response, the EC50, lay at 1.48 µM and the “ER/CK % E2” value is recorded as 58 % E2. For the same molecule, on human ERα [2], the IC50 came out at 0.435 µM and the Emax was determined as 86%.
Taken in the same sequence, the figures for `Oc1ccc(-c2n[nH]c3ccccc23)cc1O` [Example 202, 4-(1H-indazol-3-yl)benzene-1,2-diol] were 1.84 µM, 68 % E2, 0.539 µM and 160%.
On the same counts, the results for `Oc1ccc(-c2n[nH]c3c(F)cccc23)cc1` [Example 203, 4-(7-fluoro-1H-indazol-3-yl)phenol] are 1.07 µM, 48 % E2, 0.196 µM and 117%.
Taken in the same sequence, the figures for `CCCCn1nc(-c2ccc(O)cc2)c2cc(C(F)(F)F)ccc21` [Example 206, 4-[1-butyl-5-(trifluoromethyl)-1H-indazol-3-yl]phenol] were 0.902 µM, 27 % E2, 0.473 µM and 84%.
